Earlier results on 1 molecule are cited in patent publication US20210255187A1, “METHOD FOR PREDICTING THE EFFECTIVENESS OF TREATMENTS FOR CANCER PATIENTS” (University College Dublin, National University of Ireland, …, priority 2018, published 2021).

The test system of the data set is breast cancer cells.

For `COc1cccc2c1C(=O)c1c(O)c3c(c(O)c1C2=O)C[C@@](O)(C(=O)CO)C[C@@H]3O[C@H]1C[C@H](N)[C@H](O)[C@H](C)O1` [doxorubicin], the “AKT phosphorylation in response to doxorubicin” value was “not changing”.
